Data from patent US11767296B2, “Heteroaryl compounds as kinase inhibitor” (FUJIAN HAIXI PHARMACEUTICALS CO., LTD, priority 2018, dated 2023).

Columns and labels:
NFS-60 cells = assay: NFS-60 cell assay (CCK proliferation, M-CSF stimulated); type: cell-based; conditions: Mus musculus, compound 0.5 uM, 72 h, 40 ng/mL M-CSF, read-out: inhibition ratio % (NFS-60 cell proliferation)
Method: Example 54: NFS-60 Cell Assay
1. Experimental Materials
Mouse Myelogenous Leukemia Cells (NFS-60)
Using DMSO to dissolve, and the required concentration was prepared with full culture medium without factors.
Penicillin-streptomycin: TRANS
Mouse M-CSF/CSF-1 Protein: Sino Biological Inc, No. 51112-MNAH
M-CSF: Qilu Pharmaceutical co., Ltd.
The logarithmic growth phase of NFS-60 cells (1640+10% FBS+40 ng/ml M-CSF+1% Penicillin-streptomycin) were centrifuged (1000 r/min) and cultured in a factor-free medium at 37° C., 5% CO2 for 24 hours. Centrifugating (1000 r/min), the culture medium was replaced by new culture medium including 40 ng/mL factors, and inoculated on 96-well plate by 2*10^4 cells/mL, 100 μL/hole. After 16 hours, the tested compounds were added 10 μL/hole, 3 duplicate holes per compound, 37° C., 5% CO2, continue to cultured for 72 h. Then 10 μL CCK reagent was added to each hole. After incubation for 4 hours, the absorbance of each hole was measured at 450 nm wavelength. According to Formula: Inhibitory rate (%)=(1-OD value of test pore/OD value of solvent control pore)×100% 3. Experimental Results The experimental results of the inhibition of NFS-60 cell proliferation by the compounds prepared in Example 3-52, 0.5 uM, are shown in the following table: […]

CSF-1R = target: T1, CSF-1R (Homo sapiens, UniProt P07333); assay: CSF-1R kinase assay (HTRF kinEASE TK); type: biochemical; conditions: ATP 2.5 uM, enzyme 0.012 ng/ul, read-out: In vitro inhibitory activity of CSF-1R IC50
T1 construct: purchased Invitrogen PV3249
Method: Example 53: CSF-1R Kinase Assay
I. Materials and Instruments
• 2104 EnVision® Multilabel Reader (PerkinElmer) • OptiPlate-384, White Opaque 384-well MicroPlate (Cat.6007290, PerkinElmer) • HTRF kinEASE TK (Cat.62TKOPEC, Cisbio) • CSF-1R(Cat. PV3249, Invitrogen) • ATP 10 mM (Cat. PV3227, Invitrogen) • DTT 1 M (Cat. D5545, Sigma) • MgCl2 1 M (Cat. M8266, Sigma) • MnCl2 1 M (Cat.244589. Sigma)
II. Experimental Procedure
Substrate-TK and ATP were diluted to 5 times of the reaction concentration by 1×Kinase Buffer. CSF1R enzyme was diluted to 5×enzyme solution by 1×kinase buffer. Sa-XL665 was diluted to 4×Sa-XL665 solution by Detection Buffer. 100×TK-Ab-Cryptate Solution TK-Ab-Cryptate was diluted to 100×TK-Ab-Cryptate solution by Detection Buffer. 2. Experimental Procedure After all reagents had been prepared according to the above method, except enzymes, the sample was added after equilibrium to room temperature. • a. Firstly, 2.5% DMSO solution was prepared by using 1×kinase buffer (the high concentration of DMSO will affect the reaction and control the final concentration of DMSO to 1%). Then the compounds were diluted by 2.5% DMSO solution corresponding to the enzyme. The screening concentration of the compounds was 4 times gradient dilution from 1000 nM, and 8 concentrations. In addition to the control pore, 4 microlitres of diluted solution containing 2.5% DMSO were added to the reaction pore and 4 microlitres of previously prepared solution containing 2.5% DMSO were added to the control pore. • b. 2 microlitres of previously prepared TK-biotin substrate solution was added to all reaction pore (the amount of substrate used for enzyme screening is shown in Table 15). • c. Adding 2 microlitres of CSF1R enzyme solution of corresponding concentration (the amount of enzyme is shown in Table 15) to all reaction pore except negative pore. The negative pore is supplemented with 2 microlitres of enzyme corresponding to 1 xkinase buffer. After mixing, the compound and enzyme can be fully combined by incubating at room temperature for 10 minutes. • d. Enzyme reaction was initiated by adding 2 microlitres ATP solution of corresponding concentration to all reaction pore. The reaction time was 30 minutes (the corresponding ATP concentration and reaction time at enzyme screening were shown in Table 15). • e. Preparing the test solution 5 minutes before the end of kinase reaction. Streptavidin-XL665 and TK antibody europium cryptate (1:100) were prepared with detection buffer in the kit (the corresponding concentration of detection reagent for enzyme screening is shown in Table 15). • f. After the kinase reaction, 5 microlitres of diluted Streptavidin-XL665 were added to all reaction pore, mixing, and then the diluted TK antibody europium cryptate solution was added immediately. • g. After 1 hour reaction at room temperature, the fluorescence signals (320 nm stimulation, 665 nm, 615 nm emission) were detected by ENVISION (Perkinelmer) instrument. The inhibition rate of each pore was calculated by full active pore and background signal pore, and the average value of complex pore was obtained. Meanwhile, the half inhibitory activity (IC50) of each compound was fitted by professional drawing analysis software PRISM 5.0. The Flow Chart of the Experiment is as Follows:
3. Data Analysis Emission Ratio (ER)=665 nm Emission signal/615 nm Emission signal Inhibitory rate=(ERpositive−ERsample)/(ERpositive−ERnegative)*100% Using Graphpad Prism 5 and log (inhibitor) vs. normalized response to fit IC50 curve and calculate IC50 value. The IC50 data of the compounds prepared in Representative Examples 3-52 are as follows (Table 18): […]

[1] = system: MC-38 transplanted tumors; assay: Animal pharmacodynamics experiment: MC-38 transplanted tumors in C57 mice; type: in vivo; conditions: 2 weeks; for inhibition in vivo at 30 mg/kg: Mus musculus, MC-38, po, 336 h, compound alone, 30 mg/kg intragastrically daily, read-out: inhibition ratio (tumor size, MC-38 transplanted tumors); for inhibition ratio (tumor size, MC-38 transplanted tumors): compound 30 mg/kg intragastrically daily + anti-PD1 10 mg/kg i.p. once every 3 days
Method: Example 55: Animal Pharmacodynamics Experiment
In this study. MC-38 cell lines were inoculated in C57 mice
Experimental animal: C57 mice, male, 5-6 weeks old (18-22 g)
Inoculation: 2×10^6/0.1 mL, Matrigel is added in 3:1 ratio
PD1: InVivoMAb anti-mouse PD-1 (CD279). BioXCell
Group: On day 4 after inoculating, all the mice were divided into 13 groups, respectively model group, the anti-PD1 2 mg/kg group, anti-PD110 mg/kg group, testing compounds alone, and the tested compound combine with anti-PD1 10 mg/kg. Compounds were intragastrically administered daily at a dose of 30 mg/kg and anti-PD1 was intraperitoneally injected once every 3 days. The drug was administered continuously for 2 weeks. In model group, 80% glycerol+20% CMC-Na was given daily.
Results: The experimental results of anti-PD1 combined with the compounds prepared in the representative example 3-52 on the inhibition of tumor size of MC-38 transplanted tumors are as follows: […]

T1 sequence (P07333 20-972): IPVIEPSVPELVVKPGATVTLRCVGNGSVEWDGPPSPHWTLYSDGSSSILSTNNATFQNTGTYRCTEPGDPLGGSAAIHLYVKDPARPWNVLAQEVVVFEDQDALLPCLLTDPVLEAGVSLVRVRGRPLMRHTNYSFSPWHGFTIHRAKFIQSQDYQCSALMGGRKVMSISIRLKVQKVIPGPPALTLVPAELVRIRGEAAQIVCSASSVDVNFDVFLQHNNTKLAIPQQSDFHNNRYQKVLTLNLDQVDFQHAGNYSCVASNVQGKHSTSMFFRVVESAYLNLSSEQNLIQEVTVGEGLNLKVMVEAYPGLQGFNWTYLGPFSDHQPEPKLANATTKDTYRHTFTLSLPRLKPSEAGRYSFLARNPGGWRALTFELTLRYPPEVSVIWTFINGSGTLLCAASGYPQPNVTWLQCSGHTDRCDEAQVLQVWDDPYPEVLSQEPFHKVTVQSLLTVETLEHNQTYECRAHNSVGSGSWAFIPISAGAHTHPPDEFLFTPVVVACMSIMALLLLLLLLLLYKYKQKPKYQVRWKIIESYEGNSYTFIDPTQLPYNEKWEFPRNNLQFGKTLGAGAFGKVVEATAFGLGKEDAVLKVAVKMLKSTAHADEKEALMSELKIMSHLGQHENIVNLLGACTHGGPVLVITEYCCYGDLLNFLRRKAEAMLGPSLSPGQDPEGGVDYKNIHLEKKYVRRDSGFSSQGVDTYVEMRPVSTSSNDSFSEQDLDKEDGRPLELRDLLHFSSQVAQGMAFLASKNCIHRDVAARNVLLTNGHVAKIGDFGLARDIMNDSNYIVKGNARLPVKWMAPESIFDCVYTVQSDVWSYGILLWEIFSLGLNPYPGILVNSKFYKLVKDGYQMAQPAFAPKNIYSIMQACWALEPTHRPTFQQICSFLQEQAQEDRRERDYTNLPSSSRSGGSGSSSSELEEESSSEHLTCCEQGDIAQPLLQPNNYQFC

Compound	IC50 (CSF-1R) [nM]	inhibition at 0.5 µM (NFS-60 cells) [%]	inhibition in vivo at 30 mg/kg [1] [%]	inhibition ratio (tumor size, MC-38 transplanted tumors) [1]
C[C@@H](Oc1cc(Cl)cnc1N)c1cccc(NC(=O)c2cccc(C3CC3)c2)c1 [Compound 86, (R)-N-(3-(1-((2-amino-5-chloropyridin-3-yl)oxy)ethyl)-phenyl)-3-cyclopropylbenzamide]	≤ 50	–	< 10	+++ (+++: ≥30%)
Cc1cccc(C(=O)Nc2cccc([C@@H](C)Oc3cc(Cl)cnc3N)c2)c1 [Compound 72, (R)-N-(3-(1-((2-amino-5-chloropyridin-3-yl)oxy)ethyl)-phenyl)-3-methylbenzamide]	≤ 50	≥ 50	< 10	++ (++: 10%-30%)
C[C@@H](Oc1cc(Cl)cnc1N)c1cccc(NC(=O)c2cccc(S(C)(=O)=O)c2)c1 [Compound 78, (R)-N-(3-(1-((2-amino-5-chloropyridin-3-yl)oxy)ethyl)-phenyl)-3-(methylsulfonyl)-benzamide]	≤ 50	–	< 10	++ (++: 10%-30%)

The next lines start with results.

IC50 (CSF-1R) [nM]	Compound	inhibition at 0.5 µM (NFS-60 cells) [%]	inhibition in vivo at 30 mg/kg [1] [%]	inhibition ratio (tumor size, MC-38 transplanted tumors) [1]
≤ 50	C[C@@H](Oc1cc(-c2cnn(C)c2)cnc1N)c1cccc(NC(=O)c2cccc(N(C)C)c2)c1 [Compound 178, (R)-N-(3-(1-((2-amino-5-(1-methyl-1H-pyrazol-4-yl)pyridin-3-yl)oxy)ethyl)phenyl)-3-(dimethylamino)benzamide]	≥ 50	10 to 30	+++ (+++: ≥30%)
≤ 50	Cc1ccc(C(=O)Nc2cccc([C@@H](C)Oc3cc(-c4cnn(C)c4)cnc3N)c2)cc1N(C)C [Compound 179, (R)-N-(3-(1-((2-amino-5-(1-methyl-1H-pyrazol-4-yl)pyridin-3-yl)oxy)ethyl)phenyl)-3-(dimethylamino)-4-methylbenzamide]	≥ 50	10 to 30	+++ (+++: ≥30%)
≤ 50	CSc1cc(C(=O)Nc2cccc([C@@H](C)Oc3cc(-c4cnn(C)c4)cnc3N)c2)ccc1C [Compound 182, (R)-N-(3-(1-((2-amino-5-(1-methyl-1H-pyrazol-4-yl)pyridin-3-yl)oxy)ethyl)phenyl)-4-methyl-3-(methylthio)benzamide]	≥ 50	10 to 30	+++ (+++: ≥30%)
